The values that follow come from DBAASP.

Test in all cases: ≥ marks a high value that may be exact or a test limit, other limits are often not marked, values filed in µg/mL are converted to µM
The test system of experiment [1] is Escherichia coli BW25113.
The subject of experiment [2] is Escherichia coli.
Experiment [3] relates to Listeria innocua.
The test system of experiment [4] is Micrococcus luteus A270.
Experiment [5] relates to Salmonella enterica subsp. enterica serovar Enteritidis.
Experiment [6] relates to Candida albicans NCYC 1467.
Experiment [7] concerns Enterococcus faecalis NCTC 12697.
Experiment [8] relates to Escherichia coli NCTC 10418.
Experiment [9] relates to Klebsiella pneumoniae ATCC 43816.
Experiment [10] has as its system Pseudomonas aeruginosa ATCC 27853.
The test system of experiment [11] is Staphylococcus aureus NCTC 10788.
The test system of experiment [12] is Staphylococcus aureus NCTC 12493.
The subject of experiment [13] is Aeromonas hydrophila.
In experiment [14] the test system is Vibrio harveyi.
In experiment [15] the test system is Micrococcus luteus.
Experiment [16] has as its system Staphylococcus aureus.

The structures appear in SMILES notation. ≈ marks a conversion by molar mass, not a printed value. Where “and” joins values, the source holds several entries; their conditions need not be identical. Identical values can stand only once.

As a reminder, the MIC is the lowest concentration found to suppress growth. A higher MIC goes with a less susceptible organism. In turn, `CC[C@H](C)[C@H](NC(=O)[C@@H]1CCCN1C(=O)[C@H](CCCN=C(N)N)NC(=O)[C@H](CCCN=C(N)N)NC(=O)[C@H](Cc1ccccc1)NC(=O)[C@@H](N)CCCN=C(N)N)C(=O)N[C@@H](CCCN=C(N)N)C(=O)N[C@@H](CCCN=C(N)N)C(=O)N1CCC[C@H]1C(=O)N1CCC[C@H]1C(=O)N[C@H](C(=O)N[C@@H](CCCN=C(N)N)C(=O)N1CCC[C@H]1C(=O)N1CCC[C@H]1C(=O)N[C@@H](Cc1c[nH]c2ccccc12)C(=O)N[C@@H](Cc1ccc(O)cc1)C(=O)N1CCC[C@H]1C(=O)O)[C@@H](C)CC` [RFRRPIRRPPIRPPWYP] came in with an MIC in experiment [1] of 12 µM (≈ 27.1 µg/mL).

On to `CC(C)C[C@H](NC(=O)[C@H](C)NC(=O)[C@H](CC(N)=O)NC(=O)[C@H](C)NC(=O)[C@@H](NC(=O)CNC(=O)[C@H](C)NC(=O)[C@@H](NC(=O)[C@@H](NC(=O)[C@H](CCCCN)NC(=O)[C@H](CCC(N)=O)NC(=O)[C@H](Cc1ccccc1)NC(=O)[C@H](CC(=O)O)NC(=O)[C@H](C)NC(=O)[C@@H](N)CCC(N)=O)C(C)C)C(C)C)C(C)C)C(=O)N[C@@H](C)C(=O)N[C@@H](Cc1cnc[nH]1)C(=O)N[C@@H](CCCN=C(N)N)C(=O)N[C@@H](Cc1ccc(O)cc1)C(=O)N[C@@H](Cc1cnc[nH]1)C(=O)O` [QADFQKVVAGVANALAHRYH], for which the MIC in experiment [2] is 71 µM (≈ 156 µg/mL); in experiment [3] it was not below 71 µM; in [4], not below 71 µM; in experiment [5], not below 35 µM.

The compound `CC[C@H](C)[C@H](NC(=O)[C@@H]1CCCN1C(=O)[C@H](CCCN=C(N)N)NC(=O)[C@H](CCCN=C(N)N)NC(=O)[C@H](Cc1ccccc1)NC(=O)[C@@H](N)CCCN=C(N)N)C(=O)N[C@@H](CCCN=C(N)N)C(=O)N[C@@H](CCCN=C(N)N)C(=O)N[C@@H](CCCN=C(N)N)C(=O)N1CCC[C@H]1C(=O)N[C@H](C(=O)N[C@@H](CCCN=C(N)N)C(=O)N1CCC[C@H]1C(=O)N1CCC[C@H]1C(=O)N[C@@H](Cc1c[nH]c2ccccc12)C(=O)N[C@@H](Cc1ccc(O)cc1)C(=O)N[C@@H](CCCN=C(N)N)C(=O)O)[C@@H](C)CC` [RFRRPIRRRPIRPPWYR] displayed a minimum inhibitory concentration (MIC) in experiment [1] of 8 µM (≈ 19 µg/mL). That is a single-digit micromolar value.

On to `CC[C@H](C)[C@@H]1NC(=O)[C@H](C)NC(=O)[C@@H](NC(=O)[C@H](Cc2ccccc2)NC(=O)[C@@H](NC(=O)[C@H](CCCCN)NC(=O)[C@H](Cc2c[nH]c3ccccc23)NC(=O)[C@@H]2CCCN2C(=O)[C@H](CC(C)C)NC(=O)[C@H](Cc2ccccc2)NC(=O)[C@H](CCCCN)NC(=O)[C@@H](N)CCCCN)[C@@H](C)CC)CSSC[C@@H](C(=O)O)NC(=O)[C@H](CCCCN)NC(=O)[C@H](CCCCN)NC(=O)[C@H]([C@@H](C)O)NC1=O` [KKFLPWKIFCAITKKC], for which the MIC was 8 µM (≈ 15.6 µg/mL) in [6]; not below 256 µM in [7]; 16 µM (≈ 31.2 µg/mL) in [8]; not below 32 µM in experiment [9]; 64 µM (≈ 125 µg/mL) in experiment [10]; 8 µM (≈ 15.6 µg/mL) in [11]. This compound also gave a minimal inhibitory concentration (MIC) in [12] of 8 µM (≈ 15.6 µg/mL).

In the case of `CC[C@H](C)[C@H](NC(=O)[C@H](C)NC(=O)[C@H](CCCN=C(N)N)NC(=O)[C@H](Cc1cnc[nH]1)NC(=O)[C@@H](NC(=O)[C@H](C)NC(=O)[C@H](CCCN=C(N)N)NC(=O)[C@@H](NC(=O)CNC(=O)[C@H](Cc1cnc[nH]1)NC(=O)[C@H](CO)NC(=O)[C@@H](NC(=O)[C@H](Cc1c[nH]c2ccccc12)NC(=O)CNC(=O)[C@@H](NC(=O)[C@@H](NC(=O)[C@H](C)NC(=O)[C@H](Cc1cnc[nH]1)NC(=O)[C@@H](NC(=O)[C@@H](N)Cc1ccccc1)[C@@H](C)CC)[C@@H](C)CC)[C@@H](C)CC)[C@@H](C)CC)C(C)C)[C@@H](C)CC)C(=O)N[C@@H](Cc1cnc[nH]1)C(N)=O` [FIHAIIGWISHGVRAIHRAIH], the MIC in experiment [13] was 16 µM (≈ 38.5 µg/mL); in [14], not below 32 µM.

Turning to `CC[C@H](C)[C@H](NC(=O)[C@H](C)NC(=O)[C@H](CO)NC(=O)[C@@H](NC(=O)[C@@H](NC(=O)[C@H](CCCCN)NC(=O)[C@@H]1CCCN1C(=O)[C@@H](NC(=O)[C@H](CC(C)C)NC(=O)[C@H](CO)NC(=O)[C@H](CC(C)C)NC(=O)[C@@H](N)Cc1ccccc1)[C@@H](C)CC)[C@@H](C)CC)[C@@H](C)CC)C(=O)N[C@@H](CO)C(=O)N[C@@H](C)C(=O)N[C@@H](CC(C)C)C(=O)N[C@H](C(=O)N[C@@H](CCCCN)C(=O)N[C@@H](Cc1cnc[nH]1)C(=O)N[C@@H](Cc1ccccc1)C(N)=O)[C@@H](C)CC` [FLSLIPKIISAISALIKHF], the MIC in experiment [6] is not below 32 µM; in [7], 16 µM (≈ 33.8 µg/mL); in [8] it was not below 512 µM; in experiment [9], not below 512 µM; in [10], more than 512 µM; in experiment [11], 2 µM (≈ 4.22 µg/mL). Moreover, in experiment [12], the minimal inhibitory concentration (MIC) is not below 64 µM.

Consider `CC(C)C[C@H](NC(=O)[C@@H](NC(=O)[C@@H](NC(=O)[C@@H](N)CO)[C@@H](C)O)C(C)C)C(=O)N[C@H](C(=O)N[C@@H](CO)C(=O)N[C@@H](CCCCN)C(=O)N[C@@H](Cc1ccc(O)cc1)C(=O)N[C@@H](CCCN=C(N)N)C(=O)O)[C@@H](C)O` [STVLTSKYR], for which the minimal inhibitory concentration (MIC) in [2] was 8 µM (≈ 8.43 µg/mL); in experiment [3] it was 2 µM (≈ 2.11 µg/mL); in [4], 15 µM (≈ 15.8 µg/mL); in experiment [15], 15 µM (≈ 15.8 µg/mL); in [5] it was 8 µM and 7.5 µM; in experiment [16], 2 µM (≈ 2.11 µg/mL).

As for `CC[C@H](C)[C@H](NC(=O)[C@@H]1CCCN1C(=O)[C@H](Cc1c[nH]c2ccccc12)NC(=O)[C@H](CCCN=C(N)N)NC(=O)[C@H](Cc1c[nH]c2ccccc12)NC(=O)[C@@H](N)CCCN=C(N)N)C(=O)N[C@@H](CCCN=C(N)N)C(=O)N[C@@H](CCCN=C(N)N)C(=O)N1CCC[C@H]1C(=O)N1CCC[C@H]1C(=O)N[C@H](C(=O)N[C@@H](CCCN=C(N)N)C(=O)N1CCC[C@H]1C(=O)N1CCC[C@H]1C(=O)N[C@@H](Cc1c[nH]c2ccccc12)C(=O)N[C@@H](Cc1ccc(O)cc1)C(=O)N1CCC[C@H]1C(=O)O)[C@@H](C)CC` [RWRWPIRRPPIRPPWYP], the MIC in experiment [1] amounted to 8 µM (≈ 18.6 µg/mL).
